Here are results for 13 molecules from patent US20240408064A1, “RAS INHIBITORS, COMPOSITIONS AND METHODS OF USE THEREOF” (GENETOLEAD INC., priority 2021, published 2024).

The structures appear in SMILES notation.

Experiment [1] concerns the target T1, HRas^G12V (Homo sapiens (Human), UniProt P01112, G12V). Kind of experiment: 19F DLB (ligand-observed 19F NMR) score. It counts as binding. Details: scale not given here. The method, boiled down: (§1)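 In the T2-CPMG experiment, echo spacing was 1 ms and total delays ranged over eight values from 1 to 800 ms. Both scores come from 600 MHz NMR of 50 μM HRas G12V mixed with fragment pools at 240 μM each, in phosphate buffer pH 7.4 with NaCl, MgCl2 and TCEP-d16. Ligand-observed 19F spectra were recorded with 1H decoupling, 64 scans and a 5 s relaxation delay.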

For experiment [2], the target named is T1, HRas^G12V. Kind of experiment: Overall binding/activity in the various assays (NMR consensus binding). A digest of the protocol: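 Fragments (240 µM each, pooled) screened against 50 µM HRas^G12V in 25 mM sodium phosphate pH 7.4, 150 mM NaCl, 5 mM MgCl2, 1 mM TCEP-d16 by 1H-decoupled 1D 19F NMR. Hits confirmed by ligand- and protein-observed 1D 1H, STD and T2-CPMG (aggregation check); consensus binding ranked, with 15N HSQC for sites and Kd.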

Experiment [3] addresses T1, HRas^G12V. Kind of experiment: 19F T2-CPMG NMR score. It counts as binding. The method, boiled down:
as §1

T1 sequence (P01112 1-166 G12V): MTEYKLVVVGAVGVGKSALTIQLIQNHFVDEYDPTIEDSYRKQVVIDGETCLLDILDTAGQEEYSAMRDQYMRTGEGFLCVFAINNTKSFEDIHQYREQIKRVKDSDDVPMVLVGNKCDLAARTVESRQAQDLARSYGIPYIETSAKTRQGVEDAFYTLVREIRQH

As for `O=C(O)[C@@H]1CCCN(C(=O)Cc2c[nH]c3cc(F)ccc23)C1` [Compound 10149], the “19F DLB Score” value in experiment [1] was 1.56. Besides, in experiment [2], the “Binding to HRas^G12V (in words)” value is reported as “low or no binding”. Besides, in experiment [3], the “19F T2-CPMG Score” value is listed as 2.26.
`O=C(O)[C@@H]1COCCN1C(=O)Cc1c[nH]c2cc(F)ccc12` [Compound 10150, (S)-4-(2-(6-fluoro-1H-indol-3-yl)acetyl)morpholine-3-carboxylic acid]: the “19F DLB Score” value in experiment [1] is listed as 1.24. Moreover, the “Binding to HRas^G12V (in words)” value in experiment [2] is “low or no binding”. The “19F T2-CPMG Score” value in experiment [3] worked out at 2.07.
With `O=C(O)[C@@H]1CN(C(=O)Cc2c[nH]c3cc(F)ccc23)CCO1` [Compound 10151], in experiment [1], the “19F DLB Score” value worked out at 1.29. Besides, in experiment [2], the “Binding to HRas^G12V (in words)” value is reported as “low or no binding”. Besides, in experiment [3], the “19F T2-CPMG Score” value is listed as 3.24.
The corresponding values for `O=C(O)[C@H]1COCCN1C(=O)Cc1c[nH]c2cc(F)ccc12` [Compound 10152] are 1.03, “low or no binding” and 3.54.
With `O=C(O)[C@H]1CN(C(=O)Cc2c[nH]c3cc(F)ccc23)CCO1` [Compound 10153], in experiment [1], the “19F DLB Score” value was 1.39. Further, the “Binding to HRas^G12V (in words)” value in experiment [2] is “low or no binding”. Besides, in experiment [3], the “19F T2-CPMG Score” value came out at 3.22.
The corresponding values for `COC(=O)[C@H]1CN(C(=O)Cc2c[nH]c3cc(F)ccc23)CCN1C` [Compound 10156, Methyl (R)-4-(2-(6-fluoro-1H-indol-3-yl)acetyl)-1-methylpiperazine-2-carboxylate] are 1.42, “low or no binding” and 3.43.
The corresponding values for `COC(=O)[C@H]1CN(C)CCN1C(=O)Cc1c[nH]c2cc(F)ccc12` [Compound 10157, Methyl (R)-1-(2-(6-fluoro-1H-indol-3-yl)acetyl)-4-methylpiperazine-2-carboxylate] are 1.04, “low or no binding” and 3.58.
For `CN1CCN(C(=O)Cc2c[nH]c3cc(F)ccc23)[C@H](C(=O)O)C1` [Compound 10158], in that order: 0.93, “low or no binding” and 2.14.
As for `CC(=O)NC[C@H]1CN(C(=O)Cc2c[nH]c3cc(F)ccc23)CCO1` [Compound 10162, (S)—N-((4-(2-(6-fluoro-1H-indol-3-yl)acetyl)morpholin-2-yl)methyl) acetamide], the “19F DLB Score” value in experiment [1] stood at 1.65. Further, the “Binding to HRas^G12V (in words)” value in experiment [2] is reported as “low or no binding”. The “19F T2-CPMG Score” value in experiment [3] is recorded as 5.5.
For `COC(=O)[C@@H]1CN(C(=O)Cc2c[nH]c3cc(F)ccc23)CCN1C` [Compound 10163], in that order: 1.61, “low or no binding” and 7.3.
Take `CN1CCN(C(=O)Cc2c[nH]c3cc(F)ccc23)[C@@H](C(=O)O)C1` [Compound 10165, (R)-1-(2-(6-fluoro-1H-indol-3-yl)acetyl)-4-methylpiperazine-2-carboxylic acid]: the “19F DLB Score” value in experiment [1] is on record as 1.58. Further, in experiment [2], the “Binding to HRas^G12V (in words)” value is on record as “low or no binding”. Moreover, the “19F T2-CPMG Score” value in experiment [3] turned out to be 5.28.
For `CN1CCN(C(=O)Cc2c[nH]c3cc(F)ccc23)C[C@@H]1C(=O)O` [Compound 10166, (R)-4-(2-(6-fluoro-1H-indol-3-yl)acetyl)-1-methylpiperazine-2-carboxylic Acid], in that order: 1.55, “low or no binding” and 7.19.
As for `CCOC(=O)[C@@H]1CN(C(=O)Cc2c[nH]c3cc(F)ccc23)CCO1` [Compound 10168], in experiment [1], the “19F DLB Score” value is given as 1.43. For the same molecule, the “Binding to HRas^G12V (in words)” value in experiment [2] is listed as “low or no binding”. In experiment [3], the “19F T2-CPMG Score” value was found to be 4.84.
